Experimental data reported in ChEMBL document CHEMBL4706476, “Novel Tetrahydropyrido[4,3-d]pyrimidines as Potent Inhibitors of Chaperone Heat Shock Protein 90” (J Med Chem, 2016).
≈ marks a conversion by molar mass, not a printed value.

Tests used:
[1] = target: Heat shock protein HSP 90-alpha (Homo sapiens, UniProt P07900); assay: Displacement of FITC-geldanamycin from N-terminal HSP90alpha (unknown origin) after 30 mins by fluorescence polarization competitive binding assay
[2] = tested on: HCT-116; assay: cells; settings: Homo sapiens, HCT-116, 72 h
Description: Antiproliferative activity against human HCT-116 cells assessed as reduction in cell viability incubated for 72 hrs by MTT assay

[3] = tested on: MCF7; assay: cells; settings: Homo sapiens, MCF7, 72 h
[4] = Distribution coefficient, logD of compound at pH 7.4; format: physicochemical; settings: octanol/water
[5] = Permeability of the compound at pH 7.4 by PAMPA; format: ADME; settings: read-out: permeability
[6] = Intrinsic aqueous solubility of the compound; format: physicochemical
[7] = target: Endoplasmin (Homo sapiens, UniProt P14625); assay: Displacement of FITC-geldanamycin from N-terminal GRP94 (unknown origin) after 30 mins by fluorescence polarization competitive binding assay
[8] = Selectivity ratio of IC50 for inhibition of FITC-geldanamycin binding to N-terminal GRP94 (unknown origin) to IC50 for inhibition of FITC-geldanamycin binding to N-terminal HSP90alpha (unknown origin)

Chain of Endoplasmin (P14625 whole entry): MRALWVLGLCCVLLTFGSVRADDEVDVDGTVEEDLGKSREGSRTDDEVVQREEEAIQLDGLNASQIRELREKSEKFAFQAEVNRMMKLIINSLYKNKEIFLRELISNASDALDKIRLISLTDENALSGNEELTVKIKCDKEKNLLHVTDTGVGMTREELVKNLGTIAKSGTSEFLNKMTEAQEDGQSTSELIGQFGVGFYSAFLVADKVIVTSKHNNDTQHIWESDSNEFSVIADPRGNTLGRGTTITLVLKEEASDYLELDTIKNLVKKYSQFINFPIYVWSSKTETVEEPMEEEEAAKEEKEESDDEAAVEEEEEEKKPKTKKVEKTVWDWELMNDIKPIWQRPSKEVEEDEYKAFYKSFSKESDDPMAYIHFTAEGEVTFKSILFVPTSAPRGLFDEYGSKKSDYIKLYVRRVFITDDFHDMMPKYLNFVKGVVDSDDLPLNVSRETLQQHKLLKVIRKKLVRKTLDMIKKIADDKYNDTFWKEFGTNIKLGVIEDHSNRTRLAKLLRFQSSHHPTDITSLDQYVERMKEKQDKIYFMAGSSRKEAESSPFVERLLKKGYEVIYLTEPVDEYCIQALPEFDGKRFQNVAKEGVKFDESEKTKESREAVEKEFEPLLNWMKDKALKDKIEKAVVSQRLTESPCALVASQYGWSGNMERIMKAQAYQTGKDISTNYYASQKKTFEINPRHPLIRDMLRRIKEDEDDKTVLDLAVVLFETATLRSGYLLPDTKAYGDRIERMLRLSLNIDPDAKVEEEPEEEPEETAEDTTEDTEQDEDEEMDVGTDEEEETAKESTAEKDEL

Compound | IC50 [1] | IC50 [2] | IC50 [3] | logD [4] | Papp [5] | solubility [6] | IC50 [7] | Ratio IC50 [8]
CCN(CC)c1ncc2c(n1)CCN(C(=O)c1cc(C(C)C)c(O)cc1O)C2 | 201 nM | 4420 nM | 2160 nM |  |  |  |  | 
CC(C)c1cc(C(=O)N2CCc3nc(OCCN(C)C)ncc3C2)c(O)cc1O | 30 nM | 2380 nM | 1580 nM | 1.04 | 3.25 ×10⁻⁶ cm/s | 148 µg/mL (≈ 370 µM) | 290 nM | 9.7
CC(C)c1cc(C(=O)N2CCc3nc(N4CCOCC4)ncc3C2)c(O)cc1O | 110 nM | 1470 nM | 1820 nM |  |  |  |  | 
Cc1ncc2c(n1)CCN(C(=O)c1cc(Cl)c(O)cc1O)C2 | 101 nM |  |  |  |  |  |  | 
COCCOc1nc2c(c(OC(C)C)n1)CN(C(=O)c1cc(C(C)C)c(O)cc1O)CC2 | 58 nM | 740 nM | 250 nM | 3.84 | 79.4 ×10⁻⁶ cm/s | 40.2 µg/mL (≈ 90.2 µM) | 1320 nM | 22.7
CC(C)c1cc(C(=O)N2CCc3nc(N4CCCC4)ncc3C2)c(O)cc1O | 113 nM | 1140 nM | 4550 nM |  |  |  |  | 
CNc1nc(OCCOC)nc2c1CN(C(=O)c1cc(C(C)C)c(O)cc1O)CC2 | 17 nM | 270 nM | 290 nM | 2.21 | 57.5 ×10⁻⁶ cm/s | 178 µg/mL (≈ 427 µM) | 196 nM | 11.5
CC(C)c1cc(C(=O)N2CCc3nc(N4CCCCC4)ncc3C2)c(O)cc1O | 172 nM | 1550 nM | 4460 nM |  |  |  |  | 
CCCOc1ncc2c(n1)CCN(C(=O)c1cc(C(C)C)c(O)cc1O)C2 | 60 nM | 1080 nM | 1340 nM |  |  |  | 498 nM | 8.3
Cc1ncc2c(n1)CN(C(=O)c1cc(Br)c(O)cc1O)C2 | 262 nM | 1550 nM | 3720 nM |  |  |  |  | 
CC(C)c1cc(C(=O)N2CCc3nc(OCCN4CCCC4)ncc3C2)c(O)cc1O | 29 nM | 980 nM | 1930 nM | 1.12 | 3.06 ×10⁻⁶ cm/s | 146 µg/mL (≈ 341 µM) |  | 
CC(C)c1cc(C(=O)N2CCc3nc(OC4CCCCC4)ncc3C2)c(O)cc1O | 103 nM | 2780 nM | 1870 nM |  |  |  |  | 
CCN(CC)CCOc1ncc2c(n1)CCN(C(=O)c1cc(C(C)C)c(O)cc1O)C2 | 32 nM | 890 nM | 2900 nM | 1.17 | 25.7 ×10⁻⁶ cm/s | 151 µg/mL (≈ 353 µM) | 217 nM | 6.8
CCCCOc1ncc2c(n1)CCN(C(=O)c1cc(C(C)C)c(O)cc1O)C2 | 88 nM | 1270 nM | 880 nM |  |  |  | 670 nM | 7.6
Cc1ncc2c(n1)CCN(C(=O)c1cc(Br)c(O)cc1O)C2 | 132 nM | 1530 nM | 1730 nM |  |  |  |  | 
CC(C)Oc1ncc2c(n1)CCN(C(=O)c1cc(C(C)C)c(O)cc1O)C2 | 65 nM | 1240 nM | 960 nM |  |  |  | 518 nM | 8
COc1ncc2c(n1)CCN(C(=O)c1cc(C(C)C)c(O)cc1O)C2 | 75 nM | 1160 nM | 630 nM |  |  |  | 498 nM | 6.6
CC(C)c1cc(C(=O)N2CCc3nc(OCCN4CCCCC4)ncc3C2)c(O)cc1O | 30 nM | 780 nM | 2330 nM | 1.21 | 20.5 ×10⁻⁶ cm/s | 175 µg/mL (≈ 396 µM) |  | 
COCCOc1nc2c(c(NC(C)C)n1)CN(C(=O)c1cc(C(C)C)c(O)cc1O)CC2 | 30 nM | 790 nM | 250 nM | 2.98 | 62.4 ×10⁻⁶ cm/s | 137 µg/mL (≈ 309 µM) | 787 nM | 26.2
Cc1ncc2c(n1)CCN(C(=O)c1cc(C(C)C)c(O)cc1O)C2 | 26 nM | 1150 nM | 1480 nM |  | 33.3 ×10⁻⁶ cm/s |  | 245 nM | 9.4

Compound | IC50 [1] | IC50 [2] | IC50 [3] | logD [4] | Papp [5] | solubility [6] | IC50 [7] | Ratio IC50 [8]
COCCOc1nc2c(c(NC3CC3)n1)CN(C(=O)c1cc(C(C)C)c(O)cc1O)CC2 | 19 nM | 230 nM | 160 nM | 2.45 | 56.4 ×10⁻⁶ cm/s | 157 µg/mL (≈ 355 µM) | 216 nM | 11.4
CC(C)c1cc(C(=O)N2CCc3nc(OC4CCOCC4)ncc3C2)c(O)cc1O | 56 nM | 600 nM | 820 nM |  |  |  |  | 
CCCN(CCC)c1ncc2c(n1)CCN(C(=O)c1cc(C(C)C)c(O)cc1O)C2 | 370 nM | 5700 nM | 3090 nM |  |  |  |  | 
CC(C)c1cc(C(=O)N2CCc3nc(OCCN4CCOCC4)ncc3C2)c(O)cc1O | 28 nM | 1060 nM | 1230 nM | 1.48 | 30.2 ×10⁻⁶ cm/s | 140 µg/mL (≈ 316 µM) |  | 
CC(=O)N1CCN(c2ncc3c(n2)CCN(C(=O)c2cc(C(C)C)c(O)cc2O)C3)CC1 | 270 nM | 1600 nM | 3620 nM |  |  |  |  | 
CCCNc1ncc2c(n1)CCN(C(=O)c1cc(C(C)C)c(O)cc1O)C2 | 238 nM | 2340 nM | 2370 nM |  |  |  |  | 
CC(C)COc1ncc2c(n1)CCN(C(=O)c1cc(C(C)C)c(O)cc1O)C2 | 65 nM | 1230 nM | 1330 nM |  |  |  | 706 nM | 10.9
CC(C)c1cc(C(=O)N2CCc3nc(N4CCN(C)CC4)ncc3C2)c(O)cc1O | 271 nM | 1710 nM | 2180 nM |  |  |  |  | 
CC(C)Nc1ncc2c(n1)CCN(C(=O)c1cc(C(C)C)c(O)cc1O)C2 | 222 nM | 2430 nM | 2680 nM |  |  |  |  | 
CC(C)c1cc(C(=O)N2CCc3nc(OCCCN(C)C)ncc3C2)c(O)cc1O | 36 nM | 920 nM | 2370 nM | 1.09 | 4.15 ×10⁻⁶ cm/s | 156 µg/mL (≈ 375 µM) |  | 
Cc1ncc2c(n1)CN(C(=O)c1cc(C(C)C)c(O)cc1O)C2 | 38 nM | 1630 nM | 2140 nM |  | 27 ×10⁻⁶ cm/s |  | 50 nM | 1.3
CC(C)c1cc(C(=O)N2CCc3nc(OC4CCCC4)ncc3C2)c(O)cc1O | 71 nM | 1720 nM | 1190 nM |  |  |  |  | 
CCCCN(CCCC)c1ncc2c(n1)CCN(C(=O)c1cc(C(C)C)c(O)cc1O)C2 | 343 nM | 1290 nM | 1120 nM |  |  |  |  | 
CC(C)c1cc(C(=O)N2CCc3nc(N(C)C)ncc3C2)c(O)cc1O | 164 nM | 1020 nM | 1390 nM |  |  |  |  | 
CCN1CCN(c2ncc3c(n2)CCN(C(=O)c2cc(C(C)C)c(O)cc2O)C3)CC1 | 191 nM | 1650 nM | 1430 nM |  |  |  |  | 
Cc1ncc2c(n1)CN(C(=O)c1cc(Cl)c(O)cc1O)C2 | 474 nM | 10700 nM | 5480 nM |  |  |  |  | 
CC(C)c1cc(C(=O)N2CCc3nc(OC4CCN(C)CC4)ncc3C2)c(O)cc1O | 76 nM | 1700 nM | 1790 nM |  |  |  |  | 
CCNc1ncc2c(n1)CCN(C(=O)c1cc(C(C)C)c(O)cc1O)C2 | 167 nM | 1560 nM | 1580 nM |  |  |  |  | 
CNc1ncc2c(n1)CCN(C(=O)c1cc(C(C)C)c(O)cc1O)C2 | 113 nM | 740 nM | 1250 nM |  |  |  |  | 
